From patent US4147796A, “1-(3-Hydroxyalk-1-yl)-5-(carboxyalkyl)hydantoin derivatives” (Beecham Group Limited, priority 1976, dated 1979)
pIC50: −log10 of the molar value.

Assays:
[1] = system: 5-hydroxytryptamine-induced constriction; test: Inhibition of 5-hydroxytryptamine induced bronchoconstriction in the anaesthetised, artificially respired guinea pig (Konzett-Rossler preparation); format: in vivo; settings: Cavia porcellus, iv, read-out: ID50 against 5-hydroxytryptamine-induced constriction
Description: (§1) 1. The compounds were examined for their ability to inhibit 5-hydroxytryptamine or histamine induced bronchoconstriction in the anaesthetised, artificially respired guinea pig (Konzett-Rossler preparation). The compounds were administered intravenously.

[2] = system: bronchoconstriction induced by an histamine aerosol; test: Protection of conscious guinea pigs against bronchoconstriction induced by an histamine aerosol (Herxheimer test); format: in vivo, guinea pig; design: key to Aerosol route Activity (class symbol) / Oral route Activity (class symbol): A: active; settings: mean of several experiments; for minimal effective dose: Cavia porcellus, read-out: Oral route Activity: dose at which active; for minimal effective dose / Oral route Activity (class symbol): oral route
Description: 2. the compounds were also examined for their ability to protect conscious guinea pigs against bronchoconstriction induced by an histamine aerosol (Herxheimer test). In these experiments the compounds were administered by aerosol or by oral administration. The results are shown in Table B. The results are the mean of several experiments.

[3] = system: indomethacin induced gastric damage; test: Anti-ulcer activity: inhibition of indomethacin induced gastric damage in the rat; format: in vivo; settings: 100 mg/kg orally, 30 minutes prior to 15 mg/kg indomethacin s.c., groups of 7 rats, score scale 1-9
Description: Anti-ulcer activity was assessed by the inhibition of indomethacin induced gastric damage in the rat according to the method of Eleghe (1974) Israeli J. Med. Sci. 10. 1451. Rats were starved overnight given 15 mg/kg indomethacin subcutaneously and sacrificed 4 hours later. Stomachs were reflated with n.saline, cut along the greater curvature pinned out and scored for gastric damage by the following system:
Score 1-3--according to degree of erythema and slight haemorrhage.
Score 4-6--according to degree of mucosal erosion.
Score 7-9--according to depth of gastric damage.
Groups of 7 rats were used for each treatment and the test compound or vehicle were administered 30 minutes prior to giving the indomethacin. Dose of test compound was 100 mg/kg orally and control groups receiving vehicle only were set up simultaneously. Mean values for each treatment were obtained using the above scoring system and the Mann Witney test applied for significance of difference between the values obtained with the treatments.

[4] = system: pentagastrin-stimulated gastric acid secretion; test: Inhibition of pentagastrin-stimulated gastric acid secretion in the anaesthetised, perfused rat stomach preparation (Ghosh and Schild preparation); format: in vivo; settings: i.v.
Description: The compounds were examined for their ability to inhibit pentagastrin-stimulated gastric acid secretion in the anaesthetised, perfused rat stomach preparation (Ghosh and Schild preparation). The compounds were administered intra-venously.

[5] = system: platelet aggregation induced by collagen in human platelet rich plasma; test: Inhibition of collagen-induced platelet aggregation in vitro in human platelet rich plasma; format: cell-based; settings: for inhibition at 100 µM: collagen-induced
Excerpt: The compounds were examined for their ability to inhibit platelet aggregation induced in vitro by collagen in human platelet rich plasma.

[6] = system: heart fibrillation induced by chloroform; test: Anti-arrythmic activity: prevention of heart fibrillation in mice exposed to chloroform; format: in vivo; settings: 100 mg/kg intraperitoneally, group of 3 mice
Excerpt: The compounds were examined for anti-arrythmic activity by determining their ability to prevent heart fibrillation in mice exposed to chloroform.

in vivo = test: in vivo; design: species or system mice; settings: mouse
Description: For example, Compound 17 was not toxic in mice at doses up to 300 mg/kg, orally, or at doses up to 100 mg/kg, intraperitoneally, whereas Compound 21 was not toxic at doses up to 900 mg/kg, orally, in mice.

[7] = system: histamine-induced bronchoconstriction; test: Inhibition of histamine induced bronchoconstriction in the anaesthetised, artificially respired guinea pig (Konzett-Rossler preparation); format: in vivo; settings: Cavia porcellus, iv, read-out: ID50 against histamine-induced constriction
Description: as §1

Row | Structure (SMILES) | ED50 [1] | Aerosol route Activity (class symbol) [2] | other results
1 | CCCCCCC(C)(O)CCN1C(=O)N(C)C(=O)C1CCCCCCC(=O)OC (centres unmarked) [Compound 6] | 1.5 µg/kg | – | –
2 | CCCCCCC(C)(O)CCN1C(=O)N(CC)C(=O)C1CCCCCCC(=O)O (centres unmarked) [Compound 16, 1-(3'-hydroxy-3'-methyl-n-nonyl)-3-ethyl-5-(6"-carboxy-n-hexyl)hydantoin] | 5.8 µg/kg | A | –
3 | CCCCCCC(C)(O)CCN1C(=O)N(C)C(=O)C1CCCCCCC(=O)OCC (centres unmarked) [Compound 3] | 0.4 µg/kg | A | minimal effective dose [2]: 0.25 mg/kg; Oral route Activity (class symbol) [2]: A
4 | CCCCC(C)C(C)(O)CCN1C(=O)N(C)C(=O)C1CCCCCCC(=O)O (centres unmarked) [Compound 22] | 3.2 µg/kg | – | Test Mean Score + S.E. of Mean (gastric damage score) [3]: 0.00 ± 0.00
5 | CN1C(=O)C(CCCCCCC(=O)O)N(CCC(C)(O)c2ccccc2)C1=O (centres unmarked) [Compound 23] | 60 µg/kg | – | –
6 | CCCCCCCC(C)(O)CCN1C(=O)N(C)C(=O)C1CCCCCCC(=O)O (centres unmarked) [Compound 17] | 8.5 µg/kg | A | Test Mean Score + S.E. of Mean (gastric damage score) [3]: 0.43 ± 0.30; inhibited gastric acid secretion over the dose range [4]: 5 to 10 mg/kg; inhibition at 100 µM [5]: 34%; prevention of fibrillation induced by chloroform [6]: prevented fibrillation; NOAEL (in vivo; ip): ≥ 100 mg/kg; NOAEL (in vivo; po): ≥ 300 mg/kg
7 | CCCCCCC(C)(O)CCN1C(=O)N(CC)C(=O)C1CCCCCCC(=O)OCC (centres unmarked) [Compound 2, 1-(3'-hydroxy-3'-methyl-n-nonyl)-3-ethyl-5-(6"-ethoxycarbonyl-n-hexyl)hydantoin] | 6.8 µg/kg | A | –
8 | CCCCCCC(O)CCN1C(=O)N(C)C(=O)C1CCCCCCC(=O)O (centres unmarked) [Compound 24] | 6 µg/kg | – | –
9 | CCCCC(C)C(C)(O)CCN1C(=O)N(C)C(=O)C1CCCCCCC(=O)OC (centres unmarked) [Compound 7] | 3.3 µg/kg | – | –
10 | CCCCCCC(C)(O)CCN1C(=S)N(C)C(=O)C1CCCCCCC(=O)OCC (centres unmarked) [Compound 31] | 4.2 µg/kg | – | Test Mean Score + S.E. of Mean (gastric damage score) [3]: 0.00 ± 0.00
11 | CN1C(=O)C(CCCCCCC(=O)O)N(CCC2(O)CCCCC2)C1=O (centres unmarked) [Compound 19] | > 220 µg/kg | – | –
12 | CCCCCCC(C)(O)CCN1C(=S)N(C)C(=O)C1CCCCCCC(=O)OC (centres unmarked) [Compound 30, 1-(3'-hydroxy-3'-methyl-n-nonyl)-3-methyl-5-(6"-methoxycarbonyl-n-hexyl)-2-thiohydantoin] | – | – | Test Mean Score + S.E. of Mean (gastric damage score) [3]: 0.14 ± 0.14
13 | COC(=O)CCCCCCC1C(=O)N(C)C(=O)N1CCC1(O)CCCCC1 (centres unmarked) [Compound 4] | 220 µg/kg | – | –
14 | CCCCCCC(C)(O)CCN1C(=O)N(C(C)(C)C)C(=O)C1CCCCCCC(=O)O (centres unmarked) [Compound 25] | – | – | Test Mean Score + S.E. of Mean (gastric damage score) [3]: 1.14 ± 0.74
15 | CCCCCCCC(C)(O)CCN1C(=O)N(C)C(=O)C1CCCCCCC(=O)OC (centres unmarked) [Compound 1, 1-(3'-hydroxy-3'-methyl-n-decyl)-3-methyl-5-(6"-methoxycarbonyl-n-hexyl)hydantoin] | 4.5 µg/kg | A | –
16 | CCC(C)(O)CCN1C(=O)N(C)C(=O)C1CCCCCCC(=O)O (centres unmarked) [Compound 18] | – | – | inhibition at 100 µM [5]: 100%; pIC50 ([5]; in vitro, read-out: IC50 against collagen-induced aggregation): 5.15
17 | CCCCCCC(C)(O)CCN1C(=O)N(C)C(=O)C1CCCCCCC(=O)O (centres unmarked) [Compound 21, 1-(3'-hydroxy-3'-methyl-n-nonyl)-3-methyl-5-(6"-carboxy-n-hexyl)hydantoin] | 0.6 µg/kg | A | ED50 [7]: 0.6 µg/kg; minimal effective dose [2]: 0.25 mg/kg; Oral route Activity (class symbol) [2]: A; NOAEL (in vivo; po): ≥ 900 mg/kg
